What all share (assay type): cell-based
Series [1] concerns the target T1, Nuclear receptor subfamily 1 group I member 3 (Homo sapiens, UniProt Q14994).
T1 sequence (Q14994 whole entry): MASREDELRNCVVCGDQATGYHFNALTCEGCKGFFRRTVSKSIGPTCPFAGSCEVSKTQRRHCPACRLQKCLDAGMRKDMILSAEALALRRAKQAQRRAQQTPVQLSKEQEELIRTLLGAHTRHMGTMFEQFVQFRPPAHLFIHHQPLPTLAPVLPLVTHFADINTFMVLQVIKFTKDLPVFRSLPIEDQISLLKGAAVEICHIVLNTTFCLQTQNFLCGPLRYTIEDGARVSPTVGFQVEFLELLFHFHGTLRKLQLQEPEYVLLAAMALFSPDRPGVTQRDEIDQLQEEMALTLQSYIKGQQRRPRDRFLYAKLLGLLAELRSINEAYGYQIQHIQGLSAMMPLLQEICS
In words: Activation of human CAR LBD expressed in human HepG2 cells at 30 uM incubated for 24 hrs by dual luciferase reporter assay relative to CITCO. Conditions: hepg2, 24 h; call rule not given here.

Series [2] deals with T1, Nuclear receptor subfamily 1 group I member 3. In words: Activation of human CAR3 expressed in human HepG2 cells at 30 uM incubated for 24 hrs by dual luciferase gene reporter assay relative to CITCO. The note with it: hepg2, 24 h. (In general: In a reporter assay the amount or activity of a reporter protein is the signal.)
For series [3] the target is unchanged. In words: Antagonist activity at human CAR LBD expressed in human HepG2 cells at 30 uM incubated for 24 hrs in presence of CITCO by dual luciferase reporter assay. The note with it: hepg2, 24 h.
The target is the same in series [4]. In words: Partial agonist activity at human CAR LBD (151 to 349 residues) expressed in HepG2 cells coexpressed with pGL5-luc luciferase measured after 1 to 4 hrs by LanthaScreen TR-FRET assay. Conditions: for Activity: human, hepg2, time 1-4 hrs. Background: Time-resolved FRET reads energy transfer from a long-lived donor to a nearby acceptor.
Series [5] shares this target. Description: Antagonist activity at human CAR LBD (151 to 349 residues) expressed in HepG2 cells co-expressed with pGL5-luc luciferase assessed as reduction in CAR activation measured after 1 to 4 hrs by LanthaScreen TR-FRET assay. The note with it: time 1-4 hrs.
Series [6] shares this target. Description: Antagonist activity at human CAR LBD expressed in human HepG2 cells incubated for 24 hrs in presence of CITCO by dual luciferase reporter assay.
The target is the same in series [7]. Description: Antagonist activity at human CAR LBD (151 to 349 residues) expressed in HepG2 cells co-expressed with pGL5-luc luciferase assessed as reduction in CAR activation measured after 1 to 4 hrs in presence of CITCO by LanthaScreen TR-FRET assay.
In series [8] the target is T2, CAR (NR1I3) LBD (Homo sapiens, UniProt Q14994).
T2 sequence (Q14994 whole entry): T1 sequence (Q14994 whole entry)
Description: Antagonist activity at human CAR LBD expressed in human HepG2 cells at 30 uM incubated for 24 hrs by dual luciferase reporter assay relative to CITCO. Details: scale not given: the % may be the effect or the level left. Conditions: HepG2 cells expressing human CAR LBD, read-out: Activity.

Series [9] concerns the target T3, CAR3 (NR1I3) (Homo sapiens, UniProt Q14994).
T3 sequence (Q14994 whole entry): T1 sequence (Q14994 whole entry)
In words: Antagonist activity at human CAR3 expressed in human HepG2 cells at 30 uM incubated for 24 hrs by dual luciferase gene reporter assay relative to CITCO. More on the design: scale not given: the % may be the effect or the level left. The note with it: HepG2 cells expressing human CAR3, read-out: Activity.

Series [10] concerns the target T2, CAR (NR1I3) LBD. Description: Partial agonist activity at human CAR LBD expressed in human HepG2 cells at 30 uM incubated for 24 hrs by dual luciferase reporter assay relative to CITCO. Conditions: HepG2 cells expressing human CAR LBD, read-out: Activity.
Series [11] concerns the target T1, Nuclear receptor subfamily 1 group I member 3. In words: Partial agonist activity human CAR3 expressed in human HepG2 cells at 30 uM incubated for 24 hrs by dual luciferase gene reporter assay relative to CITCO. Conditions: hepg2, 24 h.

These results are taken from ChEMBL document CHEMBL5625179, “2-Substituted quinazolines: Partial agonistic and antagonistic ligands of the constitutive androstane receptor (CAR)” (Eur J Med Chem, 2023).

A word on the IC50: it is the concentration that gives 50% inhibition. In general, EC50 refers to the concentration giving half of the maximal effect.

As to `COc1ccc(-c2nc3ccccc3c(=S)[nH]2)cc1OC`, the values for the Activity in [1] and in series [2] were -4% and 13%, respectively.

For the molecule `CC(C)(C)c1ccc(-c2nc3ccccc3c(=S)[nH]2)cc1`, the Activity in [1] is given as 1%; in series [2] it was 9%.

For `COc1ccc(-c2nc(O)c3ccccc3n2)cc1OC`, the figures for the Activity in series [1] and in series [2] were 3% and 28%, respectively.

Regarding `Cn1c(-c2ccc(F)cc2)nc2ccccc2c1=O`, the Activity in series [1] is given as -5%; in series [2], 13%.

`COc1nc(-c2cccc(F)c2)nc2ccccc12`: the values for the Activity in [1] and in series [2] were -5% and 5%, respectively.

On to `Cc1cccc(-c2nc(O)c3ccccc3n2)c1`, for which the Activity worked out at 5% in [1] and 34% in series [2].

`Cn1c(-c2ccc(OC(F)(F)F)cc2)nc2ccccc2c1=O`: the Activity result in series [3] was “Active”; in series [4], “Not Active”; in series [5] it was “Not Active”; in [1], -8%; in series [2] it was 22%.

Consider `CC(C)(C)c1ccc(-c2nc3ccccc3c(=O)[nH]2)cc1`, for which the figures for the Activity in series [1] and in series [2] were -5% and 7%, respectively.

Consider `O=c1[nH]c(-c2ccc(C(F)(F)F)cc2)nc2ccccc12`, for which the Activity is on record as -8% in series [1] and 12% in series [2].

Consider `Sc1nc(-c2ccc(Br)cc2)nc2ccccc12`, for which the Activity entry in series [3] is reported as “Active”; in [4], “Not Active”; in [5] it was “Not Active”. Moreover, the IC50 is 30 µM in series [6] and 95.7 µM in series [7]. The activity at 24 h, 30 µM in series [8] came out at 1%; in series [9], 44%.

With `COc1nc(-c2cccc([N+](=O)[O-])c2)nc2ccccc12`, the Activity was -3% in series [1] and 15% in series [2].

Turning to `CSc1nc(-c2cccc(C)c2)nc2ccccc12`, the Activity entry was “Active” in [3] and 44% in [11]. The response in [4] was half-maximal at 10.6 µM (EC50). Further, in series [10], the activity at 24 h, 30 µM stood at 36.3%.

`COc1nc(-c2ccc(OC(F)(F)F)cc2)nc2ccccc12`: the Activity in series [1] is given as -3%; in [2], 5%.

As to `COc1ccc(-c2nc3ccccc3c(=O)n2C)cc1OC`, the Activity was -6% in series [1] and 15% in series [2].

With `COc1ccc(-c2nc3ccccc3c(=O)[nH]2)cc1`, the Activity in series [1] amounted to 3%; in series [2], 33%.

On to `O=c1[nH]c(-c2ccc(Cl)c(Cl)c2)nc2ccccc12`, for which the Activity in series [1] is -6%; in [2], 9%.

On to `O=c1[nH]c(-c2ccc(Br)cc2)nc2ccccc12`, for which the values for the Activity in series [1] and in series [2] were 3% and 12%, respectively.

With `Cc1cccc(-c2nc3ccccc3c(=O)n2C)c1`, the Activity in series [1] was -3%; in series [2], 13%.

Turning to `O=c1[nH]c(-c2ccc3c(c2)OCO3)nc2ccccc12`, the Activity in series [1] is listed as -2%; in [2], 3%.

As for `O=[N+]([O-])c1cccc(-c2nc3ccccc3c(=S)[nH]2)c1`, the Activity in [1] worked out at 1%; in [2] it was 11%.

Regarding `Oc1nc(-c2ccc(F)cc2)nc2ccccc12`, the Activity in [1] is reported as -6%; in series [2], 10%.

Turning to `S=c1[nH]c(-c2cccc(Cl)c2)nc2ccccc12`, the Activity came out at 6% in series [1] and 15% in [2].
